For orientation: viscosity means the internal friction of a fluid under shear. For orientation: surface tension liquid-gas means the force per length acting along the surface.

SMILES strings stand for the structures. Numbers after ± are expanded uncertainties.

The text below walks through data of the NIST ThermoML archive (doi:10.1021/je0604277).

The conditions of series [1]: for viscosity: 101.33 kPa, Liquid, rotational viscometer; for surface tension liquid-gas: Pendant drop shape.
For series [2] the following is noted: 298.15 K; 101 kPa; Liquid mixture 1; rotated drop method.

`CCCCn1cc[n+](C)c1.F[P-](F)(F)(F)(F)F` [1-butyl-3-methylimidazolium hexafluorophosphate]: the viscosity in series [1] (288.15 K) came to 400.2 ± 16 mPa·s; in series [1] (293.15 K), 294 ± 12 mPa·s; in series [1] (296.15 K), 245.8 ± 10 mPa·s; in series [1] (298.15 K) it was 217.9 ± 8.6 mPa·s; in series [1] (301.15 K), 182.7 ± 7.4 mPa·s; in series [1] (303.15 K) it was 162.9 ± 6.5 mPa·s. The viscosity in series [1] (305.15 K) stood at 145.1 ± 5.6 mPa·s; in series [1] (308.15 K), 123.2 ± 4.8 mPa·s; in series [1] (311.15 K) it was 104 ± 4.1 mPa·s; in series [1] (313.15 K), 95 ± 3.6 mPa·s. The surface tension liquid-gas in series [1] (298.15 K) stood at 53.1 ± 2.5 mN/m.
Regarding `CCCCn1cc[n+](C)c1.F[P-](F)(F)(F)(F)F` [1-butyl-3-methylimidazolium hexafluorophosphate] + C1CCCCC1, the interfacial tension in series [2] is given as 13.15 ± 0.26 mN/m.
On to `CCCCn1cc[n+](C)c1.F[P-](F)(F)(F)(F)F` [1-butyl-3-methylimidazolium hexafluorophosphate] + C=CCCCC, for which the interfacial tension in series [2] is reported as 10.42 ± 0.21 mN/m.
`CCCCn1cc[n+](C)c1.F[P-](F)(F)(F)(F)F` [1-butyl-3-methylimidazolium hexafluorophosphate] + CCC(=O)O: the interfacial tension in series [2] was 3.292 ± 0.066 mN/m.
With `CCCCn1cc[n+](C)c1.F[P-](F)(F)(F)(F)F` [1-butyl-3-methylimidazolium hexafluorophosphate] + CCCCC, the interfacial tension in series [2] stood at 13.65 ± 0.27 mN/m.
Same read-out and setting: as for `CCCCn1cc[n+](C)c1.F[P-](F)(F)(F)(F)F` [1-butyl-3-methylimidazolium hexafluorophosphate] + CCCCCC, the figure is 13.39 ± 0.27 mN/m.
Still for that read-out and setting: as for `CCCCn1cc[n+](C)c1.F[P-](F)(F)(F)(F)F` [1-butyl-3-methylimidazolium hexafluorophosphate] + CCCCCCCC, the figure is 14.29 ± 0.28 mN/m.
As for `CCCCn1cc[n+](C)c1.F[P-](F)(F)(F)(F)F` [1-butyl-3-methylimidazolium hexafluorophosphate] + CCCCCCCCCCO, the interfacial tension in series [2] was determined as 7.516 ± 0.15 mN/m.
Regarding `CCCCn1cc[n+](C)c1.F[P-](F)(F)(F)(F)F` [1-butyl-3-methylimidazolium hexafluorophosphate] + CCCCCCCCO, the interfacial tension in series [2] came to 7.385 ± 0.15 mN/m.
The same measure, in the same setting: as for `CCCCn1cc[n+](C)c1.F[P-](F)(F)(F)(F)F` [1-butyl-3-methylimidazolium hexafluorophosphate] + CCCCCCCO, the figure is 6.41 ± 0.13 mN/m.
For `CCCCn1cc[n+](C)c1.F[P-](F)(F)(F)(F)F` [1-butyl-3-methylimidazolium hexafluorophosphate] + CCCCCCO, in series [2], the interfacial tension is on record as 5.556 ± 0.11 mN/m.
With `CCCCn1cc[n+](C)c1.F[P-](F)(F)(F)(F)F` [1-butyl-3-methylimidazolium hexafluorophosphate] + CCCCCO, the interfacial tension in series [2] was found to be 5.325 ± 0.11 mN/m.
Still for that read-out and setting: the value for `CCCCn1cc[n+](C)c1.F[P-](F)(F)(F)(F)F` [1-butyl-3-methylimidazolium hexafluorophosphate] + CCCCO was 4.706 ± 0.094 mN/m; that for `CCCCn1cc[n+](C)c1.F[P-](F)(F)(F)(F)F` [1-butyl-3-methylimidazolium hexafluorophosphate] + CCCCOC(C)=O was 0.4344 ± 0.0087 mN/m; that for `CCCCn1cc[n+](C)c1.F[P-](F)(F)(F)(F)F` [1-butyl-3-methylimidazolium hexafluorophosphate] + CCO was 1.222 ± 0.024 mN/m.
In the case of `CCCCn1cc[n+](C)c1.F[P-](F)(F)(F)(F)F` [1-butyl-3-methylimidazolium hexafluorophosphate] + CCOC(C)=O, in series [2], the interfacial tension was found to be 11.69 ± 0.23 mN/m.
For `CCCCn1cc[n+](C)c1.F[P-](F)(F)(F)(F)F` [1-butyl-3-methylimidazolium hexafluorophosphate] + CCc1ccccc1, in series [2], the interfacial tension is 3.995 ± 0.08 mN/m.
On to `CCCCn1cc[n+](C)c1.F[P-](F)(F)(F)(F)F` [1-butyl-3-methylimidazolium hexafluorophosphate] + Cc1ccccc1, for which the interfacial tension in series [2] is 3 ± 0.06 mN/m.
`CCCCn1cc[n+](C)c1.F[P-](F)(F)(F)(F)F` [1-butyl-3-methylimidazolium hexafluorophosphate] + O: the interfacial tension in series [2] was 10.06 ± 0.2 mN/m.
For `CCCCn1cc[n+](C)c1.F[P-](F)(F)(F)(F)F` [1-butyl-3-methylimidazolium hexafluorophosphate] + c1ccccc1, the interfacial tension in series [2] is on record as 2.209 ± 0.044 mN/m.
Turning to `CC(C)=Cn1cc[n+](C)c1.F[B-](F)(F)F` [1-isobutenyl-3-methylimidazolium tetrafluoroborate], the viscosity in series [1] (288.15 K) is given as 214.2 ± 8.2 mPa·s; in series [1] (293.15 K), 158.7 ± 6.5 mPa·s; in series [1] (296.15 K), 133.4 ± 5.4 mPa·s; in series [1] (298.15 K), 118.5 ± 4.6 mPa·s; in series [1] (301.15 K) it was 100.4 ± 4 mPa·s; in series [1] (303.15 K) it was 88.9 ± 3.5 mPa·s. The viscosity is given as 79.8 ± 3.1 mPa·s in series [1] (305.15 K), 68 ± 2.6 mPa·s in series [1] (308.15 K), 58.6 ± 2.2 mPa·s in series [1] (311.15 K) and 53.4 ± 2 mPa·s in series [1] (313.15 K). Besides, in series [1] (298.15 K), the surface tension liquid-gas was 51.8 ± 2.2 mN/m.
With `CCCCCCCCCCCCO` [dodecan-1-ol] + CCCCn1cc[n+](C)c1.F[P-](F)(F)(F)(F)F, the interfacial tension in series [2] was 8.788 ± 0.17 mN/m.
As to `C=Cc1ccccc1` [styrene] + CCCCn1cc[n+](C)c1.F[P-](F)(F)(F)(F)F, the interfacial tension in series [2] is given as 1.793 ± 0.036 mN/m.
